Laboratory results from ChEMBL document CHEMBL1135618, “Design and pharmacology of N-[(3R)-1,2,3,4-tetrahydroisoquinolinium- 3-ylcarbonyl]-(1R)-1-(4-chlorobenzyl)- 2-[4-cyclohexyl-4-(1H-1,2,4-triazol- 1-ylmethyl)piperidin-1-yl]-2-oxoethylamine (1), a potent, selective, melanocortin subtype-4 receptor agonist” (J Med Chem, 2002).

Key:
Melanocortin receptor 5 [1] = molecular target: T1, Melanocortin receptor 5 (Homo sapiens, UniProt P33032); experiment: Maximum percentage of cAMP accumulation at 10 uM relative to alpha-MSH at MC5R; type: functional
T1 sequence (P33032 whole entry): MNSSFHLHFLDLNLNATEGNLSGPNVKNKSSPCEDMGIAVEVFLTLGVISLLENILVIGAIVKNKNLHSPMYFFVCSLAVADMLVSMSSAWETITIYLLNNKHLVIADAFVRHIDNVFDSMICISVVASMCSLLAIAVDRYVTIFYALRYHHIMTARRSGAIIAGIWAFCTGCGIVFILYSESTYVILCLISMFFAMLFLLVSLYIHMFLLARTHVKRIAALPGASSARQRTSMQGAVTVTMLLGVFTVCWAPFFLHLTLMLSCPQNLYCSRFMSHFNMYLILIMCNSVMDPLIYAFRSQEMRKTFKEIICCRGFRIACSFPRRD

Melanocortin receptor 3 [2] = molecular target: T2, Melanocortin receptor 3 (Homo sapiens, UniProt P41968); experiment: Maximum percentage of cAMP accumulation at 10 uM relative to alpha-MSH at MC3R; type: functional
T2 sequence (P41968 whole entry): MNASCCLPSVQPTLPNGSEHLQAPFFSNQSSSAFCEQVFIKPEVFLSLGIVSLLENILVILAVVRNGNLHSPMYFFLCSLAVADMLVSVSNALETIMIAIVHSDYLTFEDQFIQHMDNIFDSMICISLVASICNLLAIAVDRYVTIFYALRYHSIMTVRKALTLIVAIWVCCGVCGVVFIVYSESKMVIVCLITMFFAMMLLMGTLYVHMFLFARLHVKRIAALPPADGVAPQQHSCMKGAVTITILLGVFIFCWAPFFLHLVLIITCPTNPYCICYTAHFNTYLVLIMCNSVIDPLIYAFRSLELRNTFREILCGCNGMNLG

Melanocortin receptor 4 [3] = molecular target: T3, Melanocortin receptor 4 (Homo sapiens, UniProt P32245); experiment: Maximum percent cAMP accumulation at 10 uM relative to alpha-MSH at Melanocortin-4 receptor; type: functional
T3 sequence (P32245 whole entry): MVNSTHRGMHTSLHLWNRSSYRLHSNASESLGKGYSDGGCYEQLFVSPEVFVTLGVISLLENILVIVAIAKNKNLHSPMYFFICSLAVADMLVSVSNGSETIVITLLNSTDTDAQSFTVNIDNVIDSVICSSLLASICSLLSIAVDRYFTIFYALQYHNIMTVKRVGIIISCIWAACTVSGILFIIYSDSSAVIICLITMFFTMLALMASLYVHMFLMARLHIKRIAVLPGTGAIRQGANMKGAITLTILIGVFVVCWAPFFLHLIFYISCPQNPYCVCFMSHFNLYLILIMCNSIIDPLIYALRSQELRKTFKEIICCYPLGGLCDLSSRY

Melanocortin receptor 4 [4] = molecular target: T3, Melanocortin receptor 4; experiment: Evaluated for Functional Activity at Melanocortin-4 receptor as effective concentration at 50% maximum CMP accumulation
Melanocortin receptor 3 [5] = molecular target: T2, Melanocortin receptor 3; experiment: Evaluated for Functional Activity at MC3R as effective concentration at 50% maximum CMP accumulation
[6] = system: Melanocortin receptor 5 + Melanocortin receptor 4 (Homo sapiens); experiment: Evaluated for selectivity for MC5R versus MC4R displacing [125I]NDP-alpha-MSH radioligand expressed in CHO cells
Melanocortin receptor 5 [7] = molecular target: T1, Melanocortin receptor 5; experiment: Evaluated for Functional Activity at MC5R as effective concentration at 50% maximum CMP accumulation
Melanocortin receptor 4 [8] = molecular target: T3, Melanocortin receptor 4
Description: Evaluated for binding affinity against Melanocortin-4 receptor by displacing [125I]-NDP-alpha-MSH radioligand expressed in CHO cells

[9] = molecular target: Melanocortin receptor (M3 and M4) (Homo sapiens) (UniProt P32245+P41968); experiment: Evaluated for selectivity for MC3R versus MC4R displacing [125I]NDP-alpha-MSH radioligand expressed in CHO cells; type: cell-based
Melanocortin receptor 5 [10] = molecular target: T1, Melanocortin receptor 5; experiment: Evaluated for binding affinity against human melanocortin 5 (hMC5R) receptor by displacing [125I]NDP-alpha-MSH radioligand expressed in CHO cells; type: cell-based
Melanocortin receptor 3 [11] = molecular target: T2, Melanocortin receptor 3; details: 10 uM
Description: Percentage of cAMP accumulation at 10 uM relative to alpha-MSH at human Melanocortin-3 receptor

[12] = Evaluated for maximum time Tmax in dog at dose 0.2 mg/kg (intravenous) and 0.5 mg/kg administered orally; type: functional, organism-based
[13] = Percent bioavailability in rat evaluated at a dose 1 mg/kg (intravenous) and 10 mg/kg administered orally and was evaluated for; type: ADME, organism-based; details: in vivo, po
[14] = Volume of distribution evaluated at a dose 1 mg/kg (intravenous) and 10 mg/kg administered orally in rat; type: functional, organism-based
[15] = Evaluated for half life in dog at dose 0.2 mg/kg (intravenous) and 0.5 mg/kg administered orally; type: ADME, organism-based, Canis lupus familiaris; details: in vivo
Melanocortin receptor 3 [16] = molecular target: T4, Melanocortin receptor 3 (Rattus norvegicus, UniProt P32244); experiment: Functional activity as concentration at 50% maximum cAMP accumulation in rat Melanocortin-3 receptor (rMC3R)
T4 sequence (P32244 whole entry): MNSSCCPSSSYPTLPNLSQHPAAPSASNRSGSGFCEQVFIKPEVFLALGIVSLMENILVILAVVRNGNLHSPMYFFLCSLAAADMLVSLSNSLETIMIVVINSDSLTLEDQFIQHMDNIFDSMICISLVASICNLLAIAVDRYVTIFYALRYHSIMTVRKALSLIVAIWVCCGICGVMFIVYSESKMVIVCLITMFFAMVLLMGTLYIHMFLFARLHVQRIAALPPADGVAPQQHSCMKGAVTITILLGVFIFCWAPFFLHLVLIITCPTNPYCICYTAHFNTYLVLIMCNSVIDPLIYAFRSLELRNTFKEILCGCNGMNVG

[17] = molecular target: Melanocortin receptor 3 (Rattus norvegicus) (UniProt P32244); experiment: Percentage of cAMP accumulation at 10 uM relative to alpha-MSH at rat Melanocortin-3 receptor; type: functional
Chain of Melanocortin receptor 3 (Rattus norvegicus) (P32244 whole entry): as above

[18] = Evaluated for Plasma clearance in dog at dose 0.2 mg/kg (intravenous) and 0.5 mg/kg administered orally; type: ADME, organism-based, Canis lupus familiaris
[19] = Half life in rat evaluated at a dose 1 mg/kg (intravenous) and 10 mg/kg administered orally and was evaluated for; type: ADME, organism-based; details: in vivo
[20] = Evaluated for maximum time Tmax in rat at a dose 1 mg/kg (intravenous) and 10 mg/kg administered orally; type: functional, organism-based
Melanocortin receptor 3 [21] = molecular target: T4, Melanocortin receptor 3; experiment: Evaluated for binding affinity against rat Melanocortin-3 receptor (rMC3R) by displacing [125I]-NDP-alpha-MSH radioligand expressed in CHO cells; type: cell-based
[22] = Evaluated for % bioavailability in dogat a dose 0.2 mg/kg (intravenous) and 0.5 mg/kg administered orally; type: ADME, organism-based, Canis lupus familiaris; details: dog, in vivo, po
[23] = molecular target: Melanocyte-stimulating hormone receptor (Homo sapiens) (UniProt Q01726); details: 10 uM
Chain of Melanocyte-stimulating hormone receptor (Homo sapiens) (Q01726 whole entry, looked up): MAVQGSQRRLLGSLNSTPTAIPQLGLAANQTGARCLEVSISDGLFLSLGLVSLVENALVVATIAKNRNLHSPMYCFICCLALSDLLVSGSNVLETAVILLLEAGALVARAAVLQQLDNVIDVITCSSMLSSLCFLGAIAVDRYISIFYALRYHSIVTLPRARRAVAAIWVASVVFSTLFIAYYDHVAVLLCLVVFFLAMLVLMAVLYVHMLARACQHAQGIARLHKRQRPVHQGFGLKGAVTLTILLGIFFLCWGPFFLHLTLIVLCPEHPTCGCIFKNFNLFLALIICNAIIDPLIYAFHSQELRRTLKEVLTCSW
Description: Percentage of cAMP accumulation at 10 uM relative to alpha-MSH at hMC1R

Melanocortin receptor 5 [24] = molecular target: T1, Melanocortin receptor 5; details: 10 uM
Description: Percentage of cAMP accumulation at 10 uM relative to alpha-MSH at human Melanocortin 5 receptor

[25] = Evaluated for plasma clearance in rat at a dose 1 mg/kg (intravenous) and 10 mg/kg administered orally; type: ADME, organism-based
[26] = molecular target: Melanocortin receptor 4 (Rattus norvegicus) (UniProt P70596); details: 10 uM
Chain of Melanocortin receptor 4 (Rattus norvegicus) (P70596 whole entry): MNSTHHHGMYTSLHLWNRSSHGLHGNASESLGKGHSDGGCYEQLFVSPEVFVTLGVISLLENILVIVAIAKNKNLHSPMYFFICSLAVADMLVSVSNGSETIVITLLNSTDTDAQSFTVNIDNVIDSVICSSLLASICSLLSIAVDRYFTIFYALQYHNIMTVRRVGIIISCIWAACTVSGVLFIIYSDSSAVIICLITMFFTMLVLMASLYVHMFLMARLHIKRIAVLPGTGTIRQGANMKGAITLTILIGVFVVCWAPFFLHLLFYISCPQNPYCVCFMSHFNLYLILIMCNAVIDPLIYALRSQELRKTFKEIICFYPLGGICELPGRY
Description: Percentage of cAMP accumulation at 10 uM relative to alpha-MSH at rat Melanocortin-4 receptor

Melanocortin receptor 5 [27] = molecular target: T5, Melanocortin receptor 5 (Rattus norvegicus, UniProt P35345); experiment: Functional activity as concentration at 50% maximum cAMP accumulation in rat Melanocortin-5 receptor (rMC5R)
T5 sequence (P35345 whole entry): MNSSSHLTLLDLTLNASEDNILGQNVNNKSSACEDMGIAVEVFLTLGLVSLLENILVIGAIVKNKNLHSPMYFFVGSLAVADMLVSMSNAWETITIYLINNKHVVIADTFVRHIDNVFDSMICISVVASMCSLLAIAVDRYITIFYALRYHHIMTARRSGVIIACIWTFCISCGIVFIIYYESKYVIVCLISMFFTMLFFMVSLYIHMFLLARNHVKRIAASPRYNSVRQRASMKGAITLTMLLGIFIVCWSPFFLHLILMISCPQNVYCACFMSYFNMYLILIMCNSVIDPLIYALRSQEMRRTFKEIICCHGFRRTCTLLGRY

[28] = molecular target: Melanocortin receptor 5 (Rattus norvegicus) (UniProt P35345); experiment: Percentage of cAMP accumulation at 10 uM relative to alpha-MSH at rat Melanocortin-5 receptor; type: functional
Chain of Melanocortin receptor 5 (Rattus norvegicus) (P35345 whole entry): as above

Melanocortin receptor 5 [29] = molecular target: T5, Melanocortin receptor 5; experiment: Evaluated for binding affinity against rat Melanocortin-5 receptor (rMC5R) by displacing [125I]NDP-alpha-MSH radioligand expressed in CHO cells; type: cell-based
Melanocortin receptor 4 [30] = molecular target: T6, Melanocortin receptor 4 (Rattus norvegicus, UniProt P70596); experiment: Functional activity as concentration at 50% maximum cAMP accumulation in rat Melanocortin-4 receptor (rMC4R)
T6 sequence (P70596 whole entry): as the sequence (P70596 whole entry) above

Melanocortin receptor 4 [31] = molecular target: T6, Melanocortin receptor 4; experiment: Evaluated for binding affinity against rat Melanocortin-4 receptor (rMC4R) by displacing [125I]NDP-alpha-MSH radioligand expressed in CHO cells; type: cell-based
Melanocortin receptor 5 [32] = molecular target: T1, Melanocortin receptor 5; experiment: Functional activity as concentration at 50% maximum cAMP accumulation in human […] (MC5R) receptor
[33] = Volume of distribution evaluated at a dose 0.2 mg/kg (intravenous) and 0.5 mg/kg administered orally in dog
Melanocortin receptor 3 [34] = molecular target: T2, Melanocortin receptor 3; experiment: Evaluated for Functional Activity at MC3R as % of cAMP accumulation at 10 uM relative to alpha-MSH

Work on O=C(N[C@@H](Cc1ccc(Cl)cc1)C(=O)N1CCC(Cn2cncn2)(C2CCCCC2)CC1)[C@H]1Cc2ccccc2CN1 yielded an Activity (Melanocortin receptor 5 [1]) of 2%, an Activity (Melanocortin receptor 3 [2]) of 1% and an Activity (Melanocortin receptor 4 [3]) of 9%.
Compound Cn1nnnc1CC1(C2CCCCC2)CCN(C(=O)[C@@H](Cc2ccc(Cl)cc2)NC(=O)[C@H]2Cc3ccccc3CN2)CC1 has an Activity (Melanocortin receptor 5 [1]) of 51%, an EC50 (Melanocortin receptor 4 [4]) of 0.6 nM and an Activity (Melanocortin receptor 3 [2]) of 50%. For the same compound, the Activity (Melanocortin receptor 4 [3]) was 103%, the EC50 (Melanocortin receptor 3 [5]) was 59 nM and the Selectivity [6] was 100. It also gave an EC50 (Melanocortin receptor 5 [7]) of 127 nM, an IC50 (Melanocortin receptor 4 [8]) of 0.3 nM and a Selectivity [9] of 277.
O=C(N[C@H](Cc1ccc(Cl)cc1)C(=O)N1CCC(Cn2cncn2)(C2CCCCC2)CC1)[C@@H]1Cc2ccccc2CN1 showed an Activity (Melanocortin receptor 5 [1]) of 19%, an Activity (Melanocortin receptor 3 [2]) of 7% and an Activity (Melanocortin receptor 4 [3]) of 67%. The EC50 (Melanocortin receptor 5 [7]) was 271 nM.
O=C(N[C@H](Cc1ccc(Cl)cc1)C(=O)N1CCC(Cn2cncn2)(C2CCCCC2)CC1)[C@H]1Cc2ccccc2CN1 gave an IC50 (Melanocortin receptor 5 [10]) of 326 nM, an Activation (Melanocortin receptor 3 [11]) of 32% and a Tmax [12] of 1.5 h. It also gave a bioavailability [13] of 14%, an Activity (Melanocortin receptor 5 [1]) of 61% and a Vdss [14] of 3.6 L/kg. The half-life [15] was 1.2 h, the EC50 (Melanocortin receptor 3 [16]) was 1320 nM and the Activation [17] was 65%. It also gave an Activity (Melanocortin receptor 3 [2]) of 32%, a clearance [18] of 27.6 mL/min/kg and a half-life [19] of 0.6 h. The Tmax [20] was 1 h, the IC50 (Melanocortin receptor 3 [21]) was 1880 nM and the bioavailability [22] was 16%. For the same compound, the Activation [23] was 95%, the Activation (Melanocortin receptor 5 [24]) was 61% and the clearance [25] was 84 mL/min/kg. The Activation [26] was 99%, the EC50 (Melanocortin receptor 5 [27]) was over 3000 nM and the Activation [28] was 58%. The IC50 (Melanocortin receptor 5 [29]) was 1570 nM, the EC50 (Melanocortin receptor 5 [7]) was 736 nM and the EC50 (Melanocortin receptor 4 [30]) was 2.9 nM. For the same compound, the IC50 (Melanocortin receptor 4 [31]) was 0.6 nM, the EC50 (Melanocortin receptor 5 [32]) was 737 nM and the Vdss [33] was 2.79 L/kg.
In the case of Cn1nnc(CC2(C3CCCCC3)CCN(C(=O)[C@@H](Cc3ccc(Cl)cc3)NC(=O)[C@H]3Cc4ccccc4CN3)CC2)n1, the EC50 (Melanocortin receptor 4 [4]) is reported as 9.6 nM, the Activity (Melanocortin receptor 4 [3]) is reported as 87% and the EC50 (Melanocortin receptor 5 [7]) is reported as 1000 nM. It also gave an Activity (Melanocortin receptor 3 [34]) of 24% and an IC50 (Melanocortin receptor 4 [8]) of 1.2 nM.
Work on O=C(N[C@H](Cc1ccc(Cl)cc1)C(=O)N1CCC(Cc2nnn[nH]2)(C2CCCCC2)CC1)[C@H]1Cc2ccccc2CN1 yielded an Activity (Melanocortin receptor 5 [1]) of 15%, an EC50 (Melanocortin receptor 4 [4]) of 771 nM and an Activity (Melanocortin receptor 3 [2]) of 10%. It also gave an Activity (Melanocortin receptor 4 [3]) of 79%, a Selectivity [6] of 19 and an IC50 (Melanocortin receptor 4 [8]) of 238 nM. For the same compound, the Selectivity [9] was 53.
In the case of CS(=O)(=O)N1CC2(CCN(C(=O)[C@@H](Cc3ccc4ccccc4c3)NC(=O)[C@@H](N)Cc3cnc[nH]3)CC2)c2ccccc21, the IC50 (Melanocortin receptor 4 [8]) is reported as 108 nM.
For O=C(N[C@@H](Cc1ccc(Cl)cc1)C(=O)N1CCC(Cn2cncn2)(C2CCCCC2)CC1)[C@@H]1Cc2ccccc2CN1, the Activity (Melanocortin receptor 5 [1]) was 5%, the Activity (Melanocortin receptor 3 [2]) was 4% and the Activity (Melanocortin receptor 4 [3]) was 34%.
Work on CS(=O)(=O)N1CC2(CCN(C(=O)[C@@H](Cc3ccccc3)NC(=O)[C@@H](N)Cc3c[nH]cn3)CC2)c2ccccc21 yielded an EC50 (Melanocortin receptor 4 [4]) of 500 nM.
